# Source: PMC2602975, “Clofazimine Inhibits Human Kv1.3 Potassium Channel by Perturbing Calcium Oscillation in T Lymphocytes” (PLoS ONE, 2008)
# Key:
# Kv1.3 potassium channel = target: T1, Kv1.3 potassium channel (Homo sapiens, UniProt P22001); test: IC50 from whole-cell patch clamp in Jurkat T cells; type: cell-based
# T1 construct: gene KCNA3; His-Kv1.3 expressed in 293T cells and purified (gel shift); endogenous Kv1.3 in Jurkat T cells (patch clamp)
# mouse Kv1.3 = target: T2, mouse Kv1.3 (Mus musculus, UniProt P16390); test: whole-cell patch clamp; type: cell-based
# T2 construct: gene Kcna3; mouse Kv1.3 stably expressed in L929 cells
# T2 sequence (P16390 whole entry): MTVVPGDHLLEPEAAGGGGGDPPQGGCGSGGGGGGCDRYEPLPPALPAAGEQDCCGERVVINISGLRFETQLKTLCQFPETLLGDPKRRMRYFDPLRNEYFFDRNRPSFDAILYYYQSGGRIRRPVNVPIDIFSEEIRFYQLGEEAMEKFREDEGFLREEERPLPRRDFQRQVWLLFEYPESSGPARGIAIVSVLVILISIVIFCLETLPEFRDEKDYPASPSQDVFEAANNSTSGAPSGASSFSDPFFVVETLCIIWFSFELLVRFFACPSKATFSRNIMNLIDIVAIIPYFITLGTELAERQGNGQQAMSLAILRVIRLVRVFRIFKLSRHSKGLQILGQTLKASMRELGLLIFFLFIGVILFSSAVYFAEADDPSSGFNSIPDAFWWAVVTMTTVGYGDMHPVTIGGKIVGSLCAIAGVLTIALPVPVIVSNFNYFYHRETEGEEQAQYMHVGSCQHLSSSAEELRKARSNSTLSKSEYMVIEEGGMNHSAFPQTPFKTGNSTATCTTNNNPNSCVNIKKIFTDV
# T1 sequence (P22001 whole entry): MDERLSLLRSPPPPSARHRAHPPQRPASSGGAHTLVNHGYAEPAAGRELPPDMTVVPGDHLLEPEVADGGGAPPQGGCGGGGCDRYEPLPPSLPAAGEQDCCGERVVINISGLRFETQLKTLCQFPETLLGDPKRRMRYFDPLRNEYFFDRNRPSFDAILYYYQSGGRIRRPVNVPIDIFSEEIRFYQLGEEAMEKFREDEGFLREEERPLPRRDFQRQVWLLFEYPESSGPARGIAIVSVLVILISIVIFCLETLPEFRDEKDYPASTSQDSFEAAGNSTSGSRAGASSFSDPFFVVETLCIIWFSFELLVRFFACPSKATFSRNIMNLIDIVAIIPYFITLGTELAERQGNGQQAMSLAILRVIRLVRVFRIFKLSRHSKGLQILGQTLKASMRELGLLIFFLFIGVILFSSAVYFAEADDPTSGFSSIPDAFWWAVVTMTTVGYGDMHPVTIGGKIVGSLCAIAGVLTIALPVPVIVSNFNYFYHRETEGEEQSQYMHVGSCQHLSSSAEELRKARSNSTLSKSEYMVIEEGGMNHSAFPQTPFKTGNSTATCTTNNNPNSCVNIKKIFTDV
structure (smiles),measurement,setting,value
"CC(C)/N=c1\cc2n(-c3ccc(Cl)cc3)c3ccccc3nc-2cc1Nc1ccc(Cl)cc1 [CLF, clofazimine]",IC50,Kv1.3 potassium channel,0.3 µM
same,IC50,mouse Kv1.3,0.47 µM
